Experimental data taken from PMC10641818, “Development of First-in-Class Dual Sirt2/HDAC6 Inhibitors as Molecular Tools for Dual Inhibition of Tubulin Deacetylation” (Journal of Medicinal Chemistry, 2023).

Key:
Assay type in all cases: biochemical
[1] = biological target: T1, HDAC6 (Homo sapiens, UniProt Q9UBN7); assay: HDAC6 in vitro deacetylation assay (ZMAL); parameters: purchased BPS Bioscience 50006; conditions: deacetylation, mean ± SD
T1 sequence (Q9UBN7 1-1215): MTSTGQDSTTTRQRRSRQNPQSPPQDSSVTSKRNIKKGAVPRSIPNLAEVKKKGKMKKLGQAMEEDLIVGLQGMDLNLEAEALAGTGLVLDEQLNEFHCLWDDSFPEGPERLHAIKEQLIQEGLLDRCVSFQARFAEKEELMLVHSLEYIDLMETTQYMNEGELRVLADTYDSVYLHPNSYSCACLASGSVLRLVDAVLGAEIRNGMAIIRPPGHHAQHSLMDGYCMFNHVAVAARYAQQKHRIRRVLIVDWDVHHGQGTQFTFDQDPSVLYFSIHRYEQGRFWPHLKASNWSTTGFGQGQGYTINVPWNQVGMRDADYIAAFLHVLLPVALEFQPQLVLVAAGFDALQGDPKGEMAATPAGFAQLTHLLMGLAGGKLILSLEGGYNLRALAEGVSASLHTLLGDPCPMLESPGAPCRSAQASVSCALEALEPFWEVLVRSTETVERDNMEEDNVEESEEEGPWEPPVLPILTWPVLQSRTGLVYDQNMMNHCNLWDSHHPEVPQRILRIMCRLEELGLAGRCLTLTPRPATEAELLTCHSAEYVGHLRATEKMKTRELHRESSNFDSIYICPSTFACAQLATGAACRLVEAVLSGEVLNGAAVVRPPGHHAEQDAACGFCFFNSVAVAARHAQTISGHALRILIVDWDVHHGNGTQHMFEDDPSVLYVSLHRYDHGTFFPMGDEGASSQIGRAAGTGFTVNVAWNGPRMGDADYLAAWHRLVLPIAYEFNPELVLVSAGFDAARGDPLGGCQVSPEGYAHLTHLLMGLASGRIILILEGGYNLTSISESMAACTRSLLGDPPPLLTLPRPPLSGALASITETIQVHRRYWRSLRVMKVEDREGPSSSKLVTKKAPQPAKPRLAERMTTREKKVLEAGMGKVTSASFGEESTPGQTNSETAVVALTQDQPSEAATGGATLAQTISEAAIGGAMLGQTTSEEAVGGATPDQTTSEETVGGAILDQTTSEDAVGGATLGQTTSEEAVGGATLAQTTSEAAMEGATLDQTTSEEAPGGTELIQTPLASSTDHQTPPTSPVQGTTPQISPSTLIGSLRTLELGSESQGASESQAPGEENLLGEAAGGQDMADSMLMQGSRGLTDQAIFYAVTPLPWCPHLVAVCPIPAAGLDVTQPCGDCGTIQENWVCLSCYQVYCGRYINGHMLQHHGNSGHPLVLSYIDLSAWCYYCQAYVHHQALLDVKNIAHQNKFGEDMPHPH

[2] = biological target: T2, HDAC1 (Homo sapiens, UniProt Q13547); assay: HDAC1 in vitro deacetylation assay (ZMAL); conditions: deacetylation, mean ± SD
T2 construct: purchased BPS Bioscience 50051

[3] = biological target: T3, Sirt2 (demyristoylation) (Homo sapiens, UniProt Q8IXJ6); assay: Discontinuous Sirt2 demyristoylation assay (ZMML substrate)
T3 construct: the respective sirtuin (Sirt1_134–747, Sirt2_56–356, or Sirt3_118–395) was mixed with; made in house; host or cells: Escherichia coli BL21 Star (DE3)
T3 sequence (Q8IXJ6 56-356): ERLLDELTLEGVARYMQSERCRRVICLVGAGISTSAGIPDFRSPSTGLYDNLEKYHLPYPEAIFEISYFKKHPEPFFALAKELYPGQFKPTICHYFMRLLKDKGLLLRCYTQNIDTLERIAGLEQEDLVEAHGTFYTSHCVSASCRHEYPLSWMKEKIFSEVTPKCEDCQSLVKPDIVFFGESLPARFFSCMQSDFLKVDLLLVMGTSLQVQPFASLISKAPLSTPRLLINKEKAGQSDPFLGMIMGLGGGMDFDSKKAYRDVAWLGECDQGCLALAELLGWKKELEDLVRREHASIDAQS

T2 sequence (Q13547 whole entry): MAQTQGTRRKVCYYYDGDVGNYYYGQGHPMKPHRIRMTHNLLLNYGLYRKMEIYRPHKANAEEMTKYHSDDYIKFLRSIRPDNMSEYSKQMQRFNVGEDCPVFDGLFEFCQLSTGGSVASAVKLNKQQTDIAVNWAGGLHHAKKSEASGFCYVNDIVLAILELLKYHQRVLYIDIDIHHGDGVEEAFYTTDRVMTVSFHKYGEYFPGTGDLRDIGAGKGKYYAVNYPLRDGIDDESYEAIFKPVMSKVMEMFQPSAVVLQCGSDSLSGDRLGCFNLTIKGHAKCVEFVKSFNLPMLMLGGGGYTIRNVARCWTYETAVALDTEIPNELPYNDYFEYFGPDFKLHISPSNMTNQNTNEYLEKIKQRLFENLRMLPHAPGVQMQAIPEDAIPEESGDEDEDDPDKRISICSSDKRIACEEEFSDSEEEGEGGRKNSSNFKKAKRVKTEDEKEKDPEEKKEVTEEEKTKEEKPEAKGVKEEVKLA

Q: What does the source list for `CC(=O)NCc1ccc(C(=O)NO)cc1` [Compound 55, 4-(Acetamidomethyl)-N-hydroxybenzamide]?
A: IC50 [1]: 650 ± 40 nM; IC50 [2]: 17 ± 1 µM; inhibition at 20 µM [3]: < 15%

Q: For `O=C(NO)c1ccc(CNC(=O)c2ccccc2)cc1` [Compound 56, 4-(Benzamidomethyl)-N-hydroxybenzamide], which IC50 [1] is on record?
A: 18 ± 1 nM

Q: What about the IC50 [2] of the same molecule?
A: 0.81 ± 0.05 µM

Q: And the inhibition at 20 µM [3]?
A: < 15%

Q: With `Cc1cc(C)nc(SCC(=O)Nc2ncc(Cc3cccc(C(=O)NO)c3)s2)n1` [Compound 21, 3-((2-(2-((4,6-Dimethylpyrimidin-2-yl)thio)acetamido)thiazol-5-yl)methyl)-N-hydroxybenzamide] as the molecule, how does the inhibition at 20 µM [3] read?
A: < 15%

Q: How did the “Sirt2 (demyristoylation) percentual inhibition” value ([3]; @ 10 μM) turn out when `O=C(CCCCCCC(=O)Nc1ccccc1)NO` [SAHA, suberoylanilide hydroxamic acid, reference compound] was run?
A: 18% @ 10 μM
